Where a SMILES comes first, the peptide text is derived from it.
biological target: T1, human TNFα (Homo sapiens, UniProt P01375); experiment: p55 Receptor/IgG Fusion Protein Binding Assay (inhibition of TNFα capture by p55-Ig coated plate); conditions: peptide 1 mM; TNFα 25 ng/ml
T1 construct: purchased Biosource, Camarillo, Calif
T1 sequence (P01375 77-233 limits assumed): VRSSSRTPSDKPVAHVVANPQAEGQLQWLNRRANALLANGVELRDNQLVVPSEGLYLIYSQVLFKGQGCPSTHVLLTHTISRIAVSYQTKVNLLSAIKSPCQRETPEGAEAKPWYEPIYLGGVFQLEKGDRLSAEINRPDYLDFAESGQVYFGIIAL

Compound	inhibition of binding of TNFα to p55TNFr-IgG chimeric construct
SEQ ID NO:44: peptide of the invention that inhibits TNFα; sequence not printed (AAPGTFSNTTSSTDI)	28%
SEQ ID NO:36: peptide of the invention that inhibits TNFα; sequence not printed (SAEDSTYTQLWNWVP)	77%
SEQ ID NO:40: peptide of the invention that inhibits TNFα; sequence not printed (WVPEALSAGSRASSD)	72%
SEQ ID NO:48: peptide of the invention that inhibits TNFα; sequence not printed (TDIARPHQIANVVAI)	27%
SEQ ID NO:49: peptide of the invention that inhibits TNFα; sequence not printed (ARPHQIANVVAIPGN)	26%
SEQ ID NO:41: peptide of the invention that inhibits TNFα; sequence not printed (EALSAGSRASSDQVE)	68%
SEQ ID NO:53: peptide of the invention that inhibits TNFα; sequence not printed (DAVATSTSPTRSMAP)	63%

same assay, conditions: peptide 1 mM; TNFα 25 ng/ml; read-out: inhibition of binding of TNFα to p55TNFr-IgG chimeric construct

Compound	inhibition at 1000 µM
C[C@H](NC(=O)[C@H](CCC(=O)O)NC(=O)[C@H](CCCNC(=N)N)NC(=O)[C@H](C)NC(=O)[C@@H](N)CC(=O)O)C(=O)N[C@@H](CCC(=O)O)C(=O)N[C@@H](CO)C(=O)NCC(=O)N[C@@H](CO)C(=O)N[C@@H](Cc1ccccc1)C(=O)N[C@H](C(=O)N[C@@H](C)C(=O)N[C@@H](CO)C(=O)N[C@@H](CCC(=O)O)C(=O)N[C@@H](CC(N)=O)C(N)=O)[C@@H](C)O [SEQ ID NO:5] (H-DAREAESGSFTASEN-NH2)	58%
CC(C)[C@H](NC(=O)[C@@H](NC(=O)[C@@H](N)CC(=O)O)[C@@H](C)O)C(=O)N[C@@H](C)C(=O)NCC(=O)N[C@@H](C)C(=O)N[C@@H](CCCNC(=N)N)C(=O)N[C@@H](CCCCN)C(=O)N[C@@H](CC(N)=O)C(=O)N[C@@H](CCC(N)=O)C(=O)N[C@@H](Cc1ccc(O)cc1)C(=O)N[C@@H](CCCNC(=N)N)C(=O)N[C@@H](Cc1c[nH]cn1)C(=O)N[C@@H](Cc1ccc(O)cc1)C(=O)N[C@@H](Cc1c[nH]c2ccccc12)C(N)=O [SEQ ID NO:9, Aspartyl-threonyl-valyl-alanyl-glycyl-alanyl-arginyl-lysyl-asparaginyl-glutaminyl-tyrosyl-arginyl-histidyl-tyrosyl-tryptophan Amide] (H-DTVAGARKNQYRHYW-NH2)	30%
CC(C)C[C@H](NC(=O)[C@H](C)NC(=O)[C@H](CC(C)C)NC(=O)[C@H](CO)NC(=O)[C@H](C)NC(=O)[C@H](CC(N)=O)NC(=O)[C@H](Cc1ccccc1)NC(=O)[C@H](C)NC(=O)[C@H](CCC(N)=O)NC(=O)[C@H](Cc1ccccc1)NC(=O)[C@H](CC(C)C)NC(=O)[C@H](CC(N)=O)NC(=O)[C@H](CCC(=O)O)NC(=O)[C@@H](N)CO)C(=O)N[C@@H](CC(N)=O)C(N)=O [SEQ ID NO:24] (H-SENLFQAFNASLALN-NH2)	21%
CC(C)C[C@H](NC(=O)[C@H](CCCNC(=N)N)NC(=O)[C@H](C)NC(=O)[C@@H](NC(=O)[C@H](CO)NC(=O)CNC(=O)[C@@H]1CCCN1C(=O)[C@@H](N)CCC(=O)O)[C@@H](C)O)C(=O)N[C@@H](CCCNC(=N)N)C(=O)N[C@@H](CCC(=O)O)C(=O)N[C@@H](Cc1ccc(O)cc1)C(=O)N[C@@H](Cc1ccc(O)cc1)C(=O)N[C@@H](CC(=O)O)C(=O)N[C@@H](CCC(N)=O)C(=O)N[C@H](C(N)=O)[C@@H](C)O [SEQ ID NO:27] (H-EPGSTARLREYYDQT-NH2)	78%
CC(C)C[C@H](NC(=O)[C@H](Cc1ccccc1)NC(=O)[C@H](Cc1ccccc1)NC(=O)CNC(=O)[C@H](C)N)C(=O)N[C@@H](CCCNC(=N)N)C(=O)N[C@@H](CCC(=O)O)C(=O)N[C@@H](CC(N)=O)C(=O)N[C@@H](CCC(=O)O)C(=O)N[C@@H](C)C(=O)N[C@H](C(=O)N[C@@H](CO)C(=O)N[C@@H](C)C(=O)N[C@@H](CO)C(=O)N[C@@H](CC(N)=O)C(N)=O)C(C)C [SEQ ID NO:19] (H-AGFFLRENEAVSASN-NH2)	53%
CC[C@H](C)[C@H](NC(=O)[C@H](CCC(=O)O)NC(=O)[C@@H](NC(=O)[C@H](CCC(N)=O)NC(=O)CNC(=O)[C@H](CCSC)NC(=O)[C@H](CCC(=O)O)NC(=O)[C@@H](N)CCCCN)C(C)C)C(=O)N[C@@H](CO)C(=O)N[C@@H](CO)C(=O)N[C@@H](C)C(=O)N[C@H](C(=O)N[C@H](C(=O)N[C@@H](CC(=O)O)C(=O)N[C@@H](CCCNC(=N)N)C(N)=O)C(C)C)[C@@H](C)O [SEQ ID NO:7]	42%
CC(C)C[C@H](NC(=O)[C@H](CC(N)=O)NC(=O)[C@H](CCC(=O)O)NC(=O)[C@H](CO)NC(=O)[C@H](Cc1c[nH]c2ccccc12)NC(=O)[C@H](Cc1ccc(O)cc1)NC(=O)[C@H](Cc1c[nH]cn1)NC(=O)[C@H](CCCNC(=N)N)NC(=O)[C@H](Cc1ccc(O)cc1)NC(=O)[C@H](CCC(N)=O)NC(=O)[C@H](CC(N)=O)NC(=O)[C@H](CCCCN)NC(=O)[C@@H](N)CCCNC(=N)N)C(=O)N[C@@H](Cc1ccccc1)C(=O)N[C@@H](CCC(N)=O)C(N)=O [SEQ ID NO:10]	49%
CC[C@H](C)[C@H](NC(=O)[C@H](CCC(N)=O)NC(=O)[C@@H]1CCCN1C(=O)[C@H](CC(C)C)NC(=O)[C@H](C)NC(=O)[C@@H](N)CC(C)C)C(=O)N[C@@H](CCC(=O)O)C(=O)N[C@@H](CC(N)=O)C(=O)N[C@H](C(=O)N[C@@H](CCCCN)C(=O)NCC(=O)N[C@H](C(=O)N[C@@H](CCC(=O)O)C(=O)N[C@@H](CC(=O)O)C(=O)N[C@@H](CO)C(N)=O)[C@@H](C)O)C(C)C [SEQ ID NO:22, Leucyl-alanyl-leucyl-prolyl-glutaminyl-isoleucyl-glutamyl-asparaginyl-valyl-lysyl-glycyl-threonyl-glutamyl-aspartyl-serine Amide] (H-LALPQIENVKGTEDS-NH2)	34%
CC(C)C[C@H](NC(=O)[C@H](Cc1c[nH]cn1)NC(=O)[C@H](CC(N)=O)NC(=O)[C@H](CCC(=O)O)NC(=O)[C@H](CO)NC(=O)[C@H](C)NC(=O)[C@@H](NC(=O)[C@H](Cc1ccccc1)NC(=O)[C@H](CO)NC(=O)CNC(=O)[C@H](CO)NC(=O)[C@H](CCC(=O)O)NC(=O)[C@H](C)NC(=O)[C@@H](N)CCC(=O)O)[C@@H](C)O)C(=O)N[C@@H](CCCNC(=N)N)C(N)=O [SEQ ID NO:6, Glutamyl-alanyl-glutamyl-seryl-glycyl-seryl-phenylalanyl-threonyl-alanyl-seryl-glutamyl-asparaginyl-histidyl-leucyl-arginine Amide] (H-EAESGSFTASENHLR-NH2)	53%
C[C@H](NC(=O)[C@H](CCC(=O)O)NC(=O)[C@H](CCCNC(=N)N)NC(=O)[C@H](C)NC(=O)[C@H](CC(=O)O)NC(=O)[C@@H](NC(=O)[C@H](CC(=O)O)NC(=O)[C@H](CCC(N)=O)NC(=O)CNC(=O)[C@@H]1CCCN1C(=O)CNC(=O)[C@@H]1CCCN1C(=O)[C@H](C)NC(=O)[C@@H](N)CC(=O)O)[C@@H](C)O)C(=O)N[C@@H](CCC(=O)O)C(N)=O [SEQ ID NO:2] (H-DAPGPGQDTDAREAE-NH2)	62%
CSCC[C@H](NC(=O)[C@@H]1CCCN1C(=O)[C@H](CC(C)C)NC(=O)[C@H](CC(C)C)NC(=O)[C@H](Cc1ccccc1)NC(=O)[C@H](CO)NC(=O)[C@@H](NC(=O)[C@H](CO)NC(=O)[C@@H]1CCCN1C(=O)[C@H](C)NC(=O)[C@@H](NC(=O)[C@H](CO)NC(=O)[C@@H]1CCCN1)[C@@H](C)O)[C@@H](C)O)C(=O)NCC(=O)N1CCC[C@H]1C(N)=O [SEQ ID NO:61] (H-PSTAPSTSFLLPMGP-NH2)	72%

From patent publication US5486595A, “Tumor necrosis factor inhibitors” (Centecor, Inc., priority 1994, dated 1996)
